Laboratory results reported in PMC3626286 (Chemical research in toxicology, 2013).
“And” between values parts separate entries of the source, which are not always exact repeats. Equal values may be shown once. “Also recorded” adds a separate entry of the source. Read-outs that look alike come from different tables or passages of the source. Each block holds one molecule with its values, some of them ahead of it.

What was measured:
rat hepatocytes [1] = conditions: complete inhibition of acyl glucuronidation; cited from earlier work
[2] = cited from earlier work
[3] = test system: equine liver glutathione-S-transferase (GST); conditions: 1 μM, GSH 10 mM, equine liver GST 30 units/ml, pH 7.4, 37°C
[4] = Chemical reactivity with GSH in buffer in the absence of GST; type: physicochemical; conditions: 1 μM, GSH 10 mM, 0.1 M potassium phosphate buffer pH 7.4, 37°C, without GST
rat hepatocytes [5] = type: in vitro ADME; conditions: for fold decrease in concentration on ice versus 37°C: 0°C versus 37°C; for concentration formed at 60 min / fold decrease in concentration on ice versus 37°C: 60 min
[6] = Chemical stability in 0.1 M potassium phosphate buffer; type: physicochemical; conditions: for duration of incubation with no detectable hydrolysis: 1 μM, 0.1 M potassium phosphate buffer pH 7.4, 37°C, data not shown; for chemical stability over the 24 h incubation (in words): buffer, physiological conditions
rat hepatocytes [7] = conditions: cited from earlier work
rat hepatocytes [8] = conditions: cited from earlier work; remark: listed apart in the source
equine liver GST = conditions: after 30 min incubation; cited from earlier work
[9] = MFA 100 μM, rat hepatocytes, 37°C
[10] = inhibitor 1 mM co-incubated with MFA
[11] = in vitro in physiological buffer

SMILES: CC(C(=O)O)c1ccccc1 (centres unmarked) [2-phenylpropionic acid]
- decrease in covalent adduct formation (rat hepatocytes [1]): 18.7%

SMILES: Cc1cc(CC(=O)O[C@@H]2O[C@H](C(=O)O)[C@@H](O)[C@H](O)[C@H]2O)n(C)c1C(=O)c1ccc(Cl)cc1 [zomepirac-1-β-O-acyl glucuronide]
- half-life of degradation (t1/2) [2]: 0.45 h

- reactivity towards GSH (rate of MFA-GSH formation) in the presence of GST [3]: 0.07±0.01 nM MFA-GSH/min
- concentration formed at 60 min (rat hepatocytes [5]; [9]): 42200 nM
SMILES: Cc1cccc(Nc2ccccc2C(=O)O[C@@H]2O[C@H](C(=O)O)[C@@H](O)[C@H](O)[C@H]2O)c1C [MFA-1-O-G, mefenamic acid-1-O-acyl-glucuronide, reference compound]
- half life of degradation ([2]; buffer under physiological conditions): ~ 16 h
- half life of degradation ([2]; previously reported, also confirmed in the authors' laboratory): 16.5 h
- transacylation of GSH (rate of MFA-GSH formation) [4]: 0.02±0.02 nM MFA-GSH/min
- formation on ice (in words) (rat hepatocytes [5]; rat hepatocytes on ice (0°C)): nearly undetectable; also recorded: no MFA-1-O-G formation

- reactivity towards GSH (rate of MFA-GSH formation) in the presence of GST [3]: 3.38±0.04 nM MFA-GSH/min
- duration of incubation with no detectable hydrolysis [6]: at least 24 h
- fold lower concentration than MFA-GSH (rat hepatocytes [5]; [9]): 37 fold
- time point until which undetectable (rat hepatocytes [5]; [9]): 4 min
- concentration formed at 60 min (rat hepatocytes [5]; [9]): 45.6 nM
- time point until which undetectable (rat hepatocytes [5]; rat hepatocytes on ice (0°C)): 20 min and 10 min
- concentration formed at 60 min (rat hepatocytes [5]; rat hepatocytes on ice (0°C)): 14.1 nM
- fold decrease in concentration on ice versus 37°C (rat hepatocytes [5]; rat hepatocytes): 3.2 fold
SMILES: Cc1cccc(Nc2ccccc2C(=O)SCCNC(=O)CCNC(=O)[C@H](O)C(C)(C)COP(=O)(O)OP(=O)(O)OC[C@H]2O[C@@H](n3cnc4c(N)ncnc43)[C@H](O)[C@@H]2OP(=O)(O)O)c1C [MFA-CoA, mefenamic acid-S-acyl-Coenzyme A]
- transacylation of GSH (rate of MFA-GSH formation) [4]: 2.38±0.64 nM MFA-GSH/min

SMILES: CCCCCCCCCCCC(=O)O [lauric acid]
- inhibition of MFA-CoA formation (rat hepatocytes [7]; [10]): 58%
- inhibition of MFA-GSH formation (rat hepatocytes [7]; [10]): 66%

SMILES: CC(C)(Oc1ccc(Cl)cc1)C(=O)SCCNC(=O)CCNC(=O)C(O)C(C)(C)COP(=O)(O)OP(=O)(O)OCC1OC(n2cnc3c(N)ncnc32)C(O)C1OP(=O)(O)O (centres unmarked) [clofibric acid-S-acyl-CoA]
- degradation half life [2, 11]: 504 h
- hydrolysis per day [2, 11]: ~ 2 % hydrolysis/day

SMILES: CC1(C)[C@H]2CC[C@]1(C)[C@H](O)C2 [(−)-borneol]
- decrease in MFA-1-O-G formation (rat hepatocytes [7]; inhibitor 1 mM co-incubated with MFA (10 μM, 10 min)): 91%
- inhibition of MFA-GSH formation (rat hepatocytes [7]; [10]): no inhibition

SMILES: C[C@H](C(=O)O[C@@H]1O[C@H](C(=O)O)[C@@H](O)[C@H](O)[C@H]1O)c1ccccc1 [(S)-2-phenylpropionic-1-β-O-acyl glucuronide]
- half-life of degradation (t1/2) [2]: 2.4 h

- duration of incubation with no detectable hydrolysis [6]: at least 24 h
- chemical stability over the 24 h incubation (in words) [6]: stable
- concentration formed at 60 min (rat hepatocytes [5]; [9]): 1700 nM
- concentration formed at 60 min (rat hepatocytes [5]; rat hepatocytes on ice (0°C)): 83.9 nM
- fold decrease in concentration on ice versus 37°C (rat hepatocytes [5]; rat hepatocytes): 20 fold
SMILES: Cc1cccc(Nc2ccccc2C(=O)SC[C@H](NC(=O)CC[C@H](N)C(=O)O)C(=O)NCC(=O)O)c1C [MFA-GSH, mefenamic acid-S-acyl-glutathione]
- metabolic half life (rat hepatocytes [8]): ~ 8 min
- degradation in the presence of equine liver GST (equine liver GST): 10–11%

SMILES: CC(C)(COP(=O)(O)OP(=O)(O)OC[C@H]1O[C@@H](n2cnc3c(N)ncnc32)[C@H](O)[C@@H]1OP(=O)(O)O)[C@@H](O)C(=O)NCCC(=O)NCCSC(=O)Cc1ccccc1 [phenylacetyl-S-acyl-CoA]
- stability after one day of incubation (in words) [2]: completely stable

- reactivity towards GSH (rate of MFA-GSH formation) in the presence of GST [3]: 1.25±0.28 nM MFA-GSH/min
- duration of incubation with no detectable hydrolysis [6]: at least 24 h
- chemical stability over the 24 h incubation (in words) [6]: chemically stable
- fold lower concentration than MFA-GSH (rat hepatocytes [5]; [9]): 19 fold
- maximum concentration formed (rat hepatocytes [5]; [9]): 90.2 nM
- time of maximum concentration (rat hepatocytes [5]; [9]): 20 sec and ~ 20 sec
- concentration at which formation levelled off (rat hepatocytes [5]; rat hepatocytes on ice (0°C)): 94.1 nM
- time to maximum concentration (rat hepatocytes [5]; rat hepatocytes on ice (0°C)): 1 min
SMILES: Cc1cccc(Nc2ccccc2C(=O)OP(=O)(O)OC[C@H]2O[C@@H](n3cnc4c(N)ncnc43)[C@H](O)[C@@H]2O)c1C [MFA-AMP, mefenamic acid-acyl-adenylate]
- transacylation of GSH (rate of MFA-GSH formation) [4]: 0.21±0.02 nM MFA-GSH/min
